As a reminder, the DC50 is the midpoint of the concentration-degradation curve.

This is an account of results in patent publication US20240190880A1 (THE REGENTS OF THE UNIVERSITY OF MICHIGAN, priority 2021, published 2024).

The target in one assay is T1, ER (Homo sapiens, UniProt P03372).
T1 construct: host or cells: T47D and MCF7 human breast cancer cells
T1 sequence (P03372 1-595): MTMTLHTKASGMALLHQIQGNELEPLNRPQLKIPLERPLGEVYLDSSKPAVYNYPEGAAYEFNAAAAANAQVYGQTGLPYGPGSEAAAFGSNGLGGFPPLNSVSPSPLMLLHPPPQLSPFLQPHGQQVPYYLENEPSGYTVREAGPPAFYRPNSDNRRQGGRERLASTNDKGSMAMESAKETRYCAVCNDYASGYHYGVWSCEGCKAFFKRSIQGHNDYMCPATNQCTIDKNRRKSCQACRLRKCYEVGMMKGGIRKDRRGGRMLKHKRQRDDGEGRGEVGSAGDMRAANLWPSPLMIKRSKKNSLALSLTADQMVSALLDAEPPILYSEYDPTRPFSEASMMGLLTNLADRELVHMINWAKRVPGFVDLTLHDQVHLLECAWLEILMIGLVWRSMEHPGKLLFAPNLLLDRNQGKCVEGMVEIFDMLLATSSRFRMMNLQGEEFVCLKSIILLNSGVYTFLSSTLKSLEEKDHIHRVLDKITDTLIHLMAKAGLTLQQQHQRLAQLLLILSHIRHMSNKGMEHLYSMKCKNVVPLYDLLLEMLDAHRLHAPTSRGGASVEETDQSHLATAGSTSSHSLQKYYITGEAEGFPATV
Put plainly: ER degradation activity, in-cell western blot analysis in T47D cells. It is filed as cell-based. Particulars: 16 hours, Table A does not say which cell line (T47D or MCF7), read-out: Potency (DC50). The procedure, abridged:
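In-cell western, T47D; compounds 16 h, 0.5% DMSO final; anti-rabbit-680/anti-mouse-800 secondaries, 1 h RT, dark; read on CLX imager. ER % vs untreated/DMSO wells (100%).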
Turning to `C[C@@H]1Cc2c([nH]c3ccccc23)[C@@H](c2c(F)cc(N3CCC(N4CCC(CN5Cc6cc7c(cc6C5)C(=O)N(C5CCC(=O)NC5=O)C7=O)CC4)C3)cc2F)N1CC(F)F` (stereo partly drawn) [E 124, 6-((1-(1-(4-((1R,3R)-2-(2,2-difluoroethyl)-3-methyl-2,3,4,9-tetrahydro-1H-pyrido[3,4-b]indol-1-yl)-3,5-difluorophenyl)pyrrolidin-3-yl)piperidin-4-yl)methyl)-2-(2,6-dioxopiperidin-3-yl)-6,7-dihydropyrrolo[3,4-f]isoindole-1,3(2H,5H)-dione], the DC50 is more than 100 nM.
Still for that read-out and setting: under `C[C@@H]1Cc2c([nH]c3ccccc23)[C@@H](c2cnc(N3CCC(C(=O)N4CCC(N5Cc6cc7c(cc6C5)C(=O)N(C5CCC(=O)NC5=O)C7=O)CC4)CC3)nc2)N1CC(F)F` (stereo partly drawn) [E 260, 6-(1-(1-(5-((1R,3R)-2-(2,2-difluoroethyl)-3-methyl-2,3,4,9-tetrahydro-1H-pyrido[3,4-b]indol-1-yl)pyrimidin-2-yl)piperidine-4-carbonyl)piperidin-4-yl)-2-(2,6-dioxopiperidin-3-yl)-6,7-dihydropyrrolo[3,4-f]isoindole-1,3(2H,5H)-dione] stands less than 10 nM; under `CCC(=C(c1ccc(O)cc1)c1ccc(N2CCC3(CCN(C(=O)CN4Cc5cc6c(cc5C4)C(=O)N(C4CCC(=O)NC4=O)C6=O)CC3)CC2)cc1)c1ccccc1` (stereo not shown) [E 188, 2-(2,6-dioxopiperidin-3-yl)-6-(2-(9-(4-(1-(4-hydroxyphenyl)-2-phenylbut-1-en-1-yl)phenyl)-3,9-diazaspiro[5.5]undecan-3-yl)-2-oxoethyl)-6,7-dihydropyrrolo[3,4-f]isoindole-1,3(2H,5H)-dione], 10 to 100 nM; under `O=C1CCC(N2C(=O)c3cc4c(cc3C2=O)CN(c2ccc(CN3CC(Oc5ccc([C@@H]6c7ccc(O)cc7CC[C@@H]6c6ccccc6)cc5)C3)cn2)C4)C(=O)N1` (stereo partly drawn) [E328, 2-(2,6-dioxopiperidin-3-yl)-6-(5-((3-(4-((1R,2S)-6-hydroxy-2-phenyl-1,2,3,4-tetrahydronaphthalen-1-yl)phenoxy)azetidin-1-yl)methyl)pyridin-2-yl)-6,7-dihydropyrrolo[3,4-f]isoindole-1,3(2H,5H)-dione], more than 100 nM.
For `O=C1CCC(N2C(=O)c3cc4c(cc3C2=O)CN(C2CCC(C(=O)N3CCN(c5ccc([C@@H]6c7ccc(O)cc7CC[C@@H]6c6ccccc6)cc5)CC3)CC2)C4)C(=O)N1` (stereo partly drawn) [E 291, 2-(2,6-dioxopiperidin-3-yl)-6-(4-(4-(4-((1R,2S)-6-hydroxy-2-phenyl-1,2,3,4-tetrahydronaphthalen-1-yl)phenyl)piperazine-1-carbonyl)cyclohexyl)-6,7-dihydropyrrolo[3,4-f]isoindole-1,3(2H,5H)-dione], the DC50 is more than 100 nM.
Regarding `C[C@@H]1Cc2cc(O)ccc2[C@@H](c2c(F)cc(N3CC4(CCN(CC(=O)N5Cc6cc7c(cc6C5)C(=O)N(C5CCC(=O)NC5=O)C7=O)CC4)C3)cc2F)N1CC(C)(F)F` (stereo partly drawn) [E 25, 6-(2-(2-(4-((1S,3R)-2-(2,2-difluoropropyl)-6-hydroxy-3-methyl-1,2,3,4-tetrahydroisoquinolin-1-yl)-3,5-difluorophenyl)-2,7-diazaspiro[3.5]nonan-7-yl)acetyl)-2-(2,6-dioxopiperidin-3-yl)-6,7-dihydropyrrolo[3,4-f]isoindole-1,3(2H,5H)-dione], the DC50 is more than 100 nM.
In the case of `C[C@@H]1Cc2cc(O)ccc2[C@@H](c2ccc(N3CCC4(CCN(C(=O)CN5Cc6cc7c(cc6C5)C(=O)N(C5CCC(=O)NC5=O)C7=O)CC4)CC3)cc2)N1CC(F)F` (stereo partly drawn) [E 301, 6-(2-(9-(4-((1R,3R)-2-(2,2-difluoroethyl)-6-hydroxy-3-methyl-1,2,3,4-tetrahydroisoquinolin-1-yl)phenyl)-3,9-diazaspiro[5.5]undecan-3-yl)-2-oxoethyl)-2-(2,6-dioxopiperidin-3-yl)-6,7-dihydropyrrolo[3,4-f]isoindole-1,3(2H,5H)-dione], the DC50 was 10 to 100 nM.
With `C[C@@H]1Cc2c([nH]c3ccccc23)[C@@H](c2c(F)cc(N3CCC4(CCN(CC(=O)N5Cc6cc7c(cc6C5)C(=O)N(C5CCC(=O)NC5=O)C7=O)CC4)C3)cc2F)N1CC(F)F` (stereo partly drawn) [E 107, 6-(2-(2-(4-((1R,3R)-2-(2,2-difluoroethyl)-3-methyl-2,3,4,9-tetrahydro-1H-pyrido[3,4-b]indol-1-yl)-3,5-difluorophenyl)-2,8-diazaspiro[4.5]decan-8-yl)acetyl)-2-(2,6-dioxopiperidin-3-yl)-6,7-dihydropyrrolo[3,4-f]isoindole-1,3(2H,5H)-dione], the DC50 was less than 10 nM.
As for `C[C@@H]1Cc2c([nH]c3ccccc23)[C@@H](c2ccc(N3CCC(C(=O)N4CCC(N5Cc6cc7c(cc6C5)C(=O)N(C5CCC(=O)NC5=O)C7=O)CC4)CC3)cc2)N1CC(F)F` (stereo partly drawn) [E 263, 6-(1-(1-(4-((1R,3R)-2-(2,2-difluoroethyl)-3-methyl-2,3,4,9-tetrahydro-1H-pyrido[3,4-b]indol-1-yl)phenyl)piperidine-4-carbonyl)piperidin-4-yl)-2-(2,6-dioxopiperidin-3-yl)-6,7-dihydropyrrolo[3,4-f]isoindole-1,3(2H,5H)-dione], the DC50 lay within 10 to 100 nM.
On to `C[C@@H]1Cc2c([nH]c3ccccc23)[C@@H](c2c(F)cc(N3CC4(CN(C(=O)CN5Cc6cc7c(cc6C5)C(=O)N(C5CCC(=O)NC5=O)C7=O)C4)C3)cc2F)N1CC(F)F` (stereo partly drawn) [E 82, 6-(2-(6-(4-((1R,3R)-2-(2,2-difluoroethyl)-3-methyl-2,3,4,9-tetrahydro-1H-pyrido[3,4-b]indol-1-yl)-3,5-difluorophenyl)-2,6-diazaspiro[3.3]heptan-2-yl)-2-oxoethyl)-2-(2,6-dioxopiperidin-3-yl)-6,7-dihydropyrrolo[3,4-f]isoindole-1,3(2H,5H)-dione], for which the 50% degradation concentration (DC50) was less than 10 nM.
Same read-out and setting: for `C[C@@H]1Cc2c([nH]c3ccccc23)[C@@H](c2c(F)cc(N3CCCC(CN4CCC(N5Cc6cc7c(cc6C5)C(=O)N(C5CCC(=O)NC5=O)C7=O)CC4)C3)cc2F)N1CC(F)F` (stereo partly drawn) [E 59, 6-(1-((1-(4-((1R,3R)-2-(2,2-difluoroethyl)-3-methyl-2,3,4,9-tetrahydro-1H-pyrido[3,4-b]indol-1-yl)-3,5-difluorophenyl)piperidin-3-yl)methyl)piperidin-4-yl)-2-(2,6-dioxopiperidin-3-yl)-6,7-dihydropyrrolo[3,4-f]isoindole-1,3(2H,5H)-dione] the value was 10 to 100 nM; for `O=C1CCC(N2C(=O)c3cc4c(cc3C2=O)CN(C(=O)C2CCN(CC3CN(c5ccc([C@@H]6c7ccc(O)cc7CC[C@@H]6c6ccccc6)cc5)C3)CC2)C4)C(=O)N1` (stereo partly drawn) [E 295, 2-(2,6-dioxopiperidin-3-yl)-6-(1-((1-(4-((1R,2S)-6-hydroxy-2-phenyl-1,2,3,4-tetrahydronaphthalen-1-yl)phenyl)azetidin-3-yl)methyl)piperidine-4-carbonyl)-6,7-dihydropyrrolo[3,4-f]isoindole-1,3(2H,5H)-dione], more than 100 nM.

Staying with this assay, now noted: compounds 16 hours, Table A does not say whether T47D or MCF7, read-out: Potency (DC50).
In the case of `C[C@@H]1Cc2c([nH]c3ccccc23)[C@@H](c2ccc(C3CCC(C(=O)N4CCC(N5Cc6cc7c(cc6C5)C(=O)N(C5CCC(=O)NC5=O)C7=O)CC4)CC3)c(F)c2)N1CC(F)F` (stereo partly drawn) [E 475, 6-(1-(4-(4-((1R,3R)-2-(2,2-difluoroethyl)-3-methyl-2,3,4,9-tetrahydro-1H-pyrido[3,4-b]indol-1-yl)-2-fluorophenyl)cyclohexane-1-carbonyl)piperidin-4-yl)-2-(2,6-dioxopiperidin-3-yl)-6,7-dihydropyrrolo[3,4-f]isoindole-1,3(2H,5H)-dione], the DC50 is 10 to 100 nM.
`O=C1CCC(N2C(=O)c3cc4c(cc3C2=O)CN(CC(=O)N2CC3(CCN(c5ccc([C@H]6c7ccc(O)cc7CC[C@H]6c6ccccc6)cc5)CC3)C2)C4)C(=O)N1` (stereo partly drawn) [E 438, 2-(2,6-dioxopiperidin-3-yl)-6-(2-(7-(4-((1S,2R)-6-hydroxy-2-phenyl-1,2,3,4-tetrahydronaphthalen-1-yl)phenyl)-2,7-diazaspiro[3.5]nonan-2-yl)-2-oxoethyl)-6,7-dihydropyrrolo[3,4-f]isoindole-1,3(2H,5H)-dione]: the DC50 was more than 100 nM.
The same measure, in the same setting: for `O=C1CCC(N2C(=O)c3cc4c(cc3C2=O)CN(CC(=O)N2CCC3(CC2)CCN(c2ccc([C@@H]5c6ccc(-c7cn[nH]c7)cc6CC[C@@H]5c5ccccc5)cc2)CC3)C4)C(=O)N1` (stereo partly drawn) [E 510, 2-(2,6-dioxopiperidin-3-yl)-6-(2-oxo-2-(9-(4-((1R,2S)-2-phenyl-6-(1H-pyrazol-4-yl)-1,2,3,4-tetrahydronaphthalen-1-yl)phenyl)-3,9-diazaspiro[5.5]undecan-3-yl)ethyl)-6,7-dihydropyrrolo[3,4-f]isoindole-1,3(2H,5H)-dione] the value was more than 100 nM; for `O=C1CCC(N2C(=O)c3cc4c(cc3C2=O)CN(CC2CC3(CCN(C(=O)c5ccc([C@@H]6c7ccc(O)cc7CC[C@@H]6c6ccccc6)cc5)CC3)C2)C4)C(=O)N1` (stereo partly drawn) [E 494, 2-(2,6-dioxopiperidin-3-yl)-6-((7-(4-((1R,2S)-6-hydroxy-2-phenyl-1,2,3,4-tetrahydronaphthalen-1-yl)benzoyl)-7-azaspiro[3.5]nonan-2-yl)methyl)-6,7-dihydropyrrolo[3,4-f]isoindole-1,3(2H,5H)-dione], more than 100 nM.
